From paper PMC6125496 (Antimicrobial Agents and Chemotherapy, 2018)
Converted amounts (≈) assume the structure as drawn. Read-outs that look alike come from different tables or passages of the source.

Key:
[1] = test system: K. pneumoniae NCTC 13442 (OXA-48); experiment: Neutropenic mouse lung infection model; format: in vivo, Klebsiella pneumoniae; details: 160 mg/kg/day s.c. (40 mg/kg at 2, 8, 14, 20 h), 26 h postchallenge
[2] = test system: Serratia marcescens DSM 17174; experiment: microbe, parasite or virus in culture; details: Serratia marcescens, DSM17174
From the text: (§1) Reference strains are from the German Collection of Microorganisms and Cell Cultures (DSMZ), the American Type Culture Collection (ATCC), the National Collection of Type Cultures (NCTC), and the Medical and Molecular Microbiology, Faculty of Science and Medicine, University of Fribourg, Switzerland.

[3] = test system: Enterococcus faecium DSM 20477; experiment: microbe, parasite or virus in culture; details: Enterococcus faecium, DSM20477
From the text: as §1

[4] = test system: Escherichia coli BAA-2469; experiment: microbe, parasite or virus in culture; details: NDM-1
From the text: as §1

[5] = test system: Pseudomonas aeruginosa DSM 1117; experiment: microbe, parasite or virus in culture; details: Pseudomonas aeruginosa, DSM1117
From the text: as §1

[6] = test system: Escherichia coli BAA-2471; experiment: microbe, parasite or virus in culture; details: Escherichia coli, BAA2471
From the text: as §1

[7] = test system: Enterococcus faecalis DSM 2570; experiment: microbe, parasite or virus in culture; details: Enterococcus faecalis, DSM2570
From the text: as §1

[8] = test system: Citrobacter freundii DSM 30039; experiment: microbe, parasite or virus in culture; details: Citrobacter freundii, DSM30039
From the text: as §1

[9] = test system: Acinetobacter baumannii ATCC 19606; experiment: microbe, parasite or virus in culture; details: Acinetobacter baumannii, ATCC19606
From the text: as §1

[10] = test system: Staphylococcus aureus ATCC 29213; experiment: microbe, parasite or virus in culture; details: Staphylococcus aureus, ATCC29213
From the text: as §1

[11] = test system: Enterobacter cloacae DSM 14563; experiment: microbe, parasite or virus in culture; details: Enterobacter cloacae, DSM14563
From the text: as §1

[12] = test system: Escherichia coli ATCC 25922; experiment: microbe, parasite or virus in culture; details: Escherichia coli, ATCC25922
From the text: as §1

[13] = test system: Klebsiella pneumoniae NCTC 13442; experiment: microbe, parasite or virus in culture; details: Klebsiella pneumoniae, NCTC13442
From the text: as §1

[14] = test system: Enterobacter aerogenes DSM 30053; experiment: microbe, parasite or virus in culture; details: Klebsiella aerogenes, DSM30053
From the text: as §1

[15] = test system: Klebsiella pneumoniae NCTC 13443; experiment: microbe, parasite or virus in culture; details: Klebsiella pneumoniae, NCTC13443
From the text: as §1

[16] = test system: Klebsiella pneumoniae NCTC 13439; experiment: microbe, parasite or virus in culture; details: Klebsiella pneumoniae, NCTC13439
From the text: as §1

[17] = test system: Klebsiella pneumoniae ATCC BAA-1905; experiment: microbe, parasite or virus in culture; details: Klebsiella pneumoniae, ATCCBAA1905
From the text: as §1

[18] = test system: Citrobacter kozeri DSM 4595; experiment: microbe, parasite or virus in culture; details: Citrobacter, DSM4595
From the text: as §1

[19] = test system: Streptococcus pneumoniae DSM 2134; experiment: microbe, parasite or virus in culture; details: Streptococcus pneumoniae, DSM2134
From the text: as §1

[20] = test system: Klebsiella pneumoniae ATCC 43816; experiment: microbe, parasite or virus in culture; details: Klebsiella pneumoniae, ATCC43816
From the text: as §1

[21] = test system: Stenotrophomonas maltophilia ATCC 13637; experiment: microbe, parasite or virus in culture; details: Stenotrophomonas maltophilia, ATCC13637
From the text: as §1

[22] = test system: Klebsiella pneumoniae ATCC BAA-1904; experiment: microbe, parasite or virus in culture; details: Klebsiella pneumoniae, ATCCBAA1904
From the text: as §1

[23] = test system: Staphylococcus epidermidis ATCC 12228; experiment: microbe, parasite or virus in culture; details: Staphylococcus epidermidis, ATCC12228
From the text: as §1

[24] = test system: Escherichia coli, colistin-resistant (25)
From the text: as §1

[25] = test system: Klebsiella pneumoniae, colistin resistant (46)
From the text: as §1

With `CN(C)c1cc(NC(=O)CNC(C)(C)C)c(O)c2c1C[C@H]1C[C@H]3[C@H](N(C)C)C(O)=C(C(N)=O)C(=O)[C@@]3(O)C(O)=C1C2=O` [TGC, tigecycline] the “reduction of lung burden relative to vehicle” value [1] was 3.14 log10 CFU/gram of lung tissue, the MIC [2] was 4 µg/mL (≈ 6.83 µM) and the MIC [3] was 0.125 µg/mL (≈ 0.213 µM). For the same compound, the MIC ([4]; Ambler class B carbapenemase) was 1 µg/mL (≈ 1.71 µM), the MIC ([4]; Escherichia coli, BAA2469, Ambler class B carbapenemase) was 0.5 µg/mL (≈ 0.854 µM) and the MIC [5] was > 8 µg/mL. The MIC [6] was 1 µg/mL (≈ 1.71 µM), the MIC [7] was 0.25 µg/mL (≈ 0.427 µM) and the MIC [8] was 1 µg/mL (≈ 1.71 µM). It also gave an MIC [9] of 1 µg/mL (≈ 1.71 µM), an MIC [10] of 0.5 µg/mL (≈ 0.854 µM) and an MIC [11] of 4 µg/mL (≈ 6.83 µM). It also gave an MIC [12] of 0.25 µg/mL (≈ 0.427 µM), an MIC [13] of 2 µg/mL (≈ 3.41 µM) and an MIC [14] of 1 µg/mL (≈ 1.71 µM). It also gave an MIC [15] of 4 µg/mL (≈ 6.83 µM), an MIC [16] of 2 µg/mL (≈ 3.41 µM) and an MIC [17] of 4 µg/mL (≈ 6.83 µM). The MIC [18] was 1 µg/mL (≈ 1.71 µM), the MIC [19] was 0.125 µg/mL (≈ 0.213 µM) and the MIC [20] was 2 µg/mL (≈ 3.41 µM). It also gave an MIC [21] of 0.5 µg/mL (≈ 0.854 µM), an MIC [22] of 2 µg/mL (≈ 3.41 µM) and an MIC [23] of 0.5 µg/mL (≈ 0.854 µM).
With colistin [CST] the MIC range ([24]; Unknown mechanism (2 isolates)) was 16 µg/mL, the MIC range ([24]; mcr-1 (21 isolates)) was 4 to 16 µg/mL and the MIC range ([24]; mcr-2 (1 isolate)) was 8 µg/mL. For the same compound, the MIC range ([24]; mcr-3 (1 isolate)) was 16 µg/mL, the MIC range ([25]; Unknown mechanism (1)) was 32 µg/mL and the MIC range ([25]; crrB G183V substitution (1)) was >128 µg/mL. The MIC range ([25]; crrB N141Y substitution (1)) was >128 µg/mL, the MIC range ([25]; crrB P151L substitution (1)) was >128 µg/mL and the MIC range ([25]; mcr-1 (1)) was 32 µg/mL. For the same compound, the MIC range ([25]; mgrB IS1R between +44 and +45 (2)) was 128 µg/mL, the MIC range ([25]; mgrB IS1R into promoter between −45 and −46 (3)) was 32 to 128 µg/mL and the MIC range ([25]; mgrB IS5 between +74 and +75 (4)) was 16 to 128 µg/mL. For the same compound, the MIC range ([25]; mgrB IS903B between +69 and +70 (2)) was 64 µg/mL, the MIC range ([25]; mgrB ISKpn14 into promoter between −28 and −29 (2)) was 64 µg/mL and the MIC range ([25]; mgrB M27K substitution (1)) was 32 µg/mL. It also gave an MIC range ([25]; mgrB N42Y and K43I substitutions (1)) of 32 µg/mL, an MIC range ([25]; mgrB W20R substitution (1)) of 32 µg/mL and an MIC range ([25]; mgrB W47R substitution (1)) of 8 µg/mL. For the same compound, the MIC range ([25]; mgrB premature termination (6)) was 32 to 128 µg/mL, the MIC range ([25]; phoQ R16C substitution (1)) was >128 µg/mL and the MIC range ([25]; pmrB L17Q substitution (1)) was 32 µg/mL. For the same compound, the MIC range ([25]; pmrB T157P substitution (6)) was 8 to 32 µg/mL.
